In US11958865B1, “Leucine-rich repeat kinase 2 (LRRK2) inhibitors” (H. Lundbeck A/S, priority 2022, dated 2024):

Tested on: pooled donor, cryopreserved hepatocytes
Experiment: Hepatocyte intrinsic clearance assay
Type: in vitro ADME, Human
Settings: based on hepatocyte CLint values of Table 5
Outline: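 Compound (0.05 μM final, 0.05% organic) was incubated with pooled-donor cryopreserved hepatocytes (1×10^6/mL) in supplemented Leibovitz L-15, pH 7.4, at 37° C with shaking for 2 h. Samples were taken from 1 to 120 min, quenched in acetonitrile and analyzed by LC-MS/MS.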

## COc1nc(C)ccc1-n1nc2c(c1C)Nc1ncc3c(Cl)nn(c3n1)CCCO2 [Example 13, 8-Chloro-2-(2-methoxy-6-methylpyridin-3-yl)-3-methyl-2,4,12,13-tetrahydro-11H-5,7-(azenometheno)dipyrazolo[3,4-b:5′,1′-g][1]oxa[4,6,8]triazacycloundecine]
  Rate of metabolism classification (hepatocyte CLint): moderate to high rate of metabolism
